# Measurements published in article PMC9953701 (Biomedicines, 2023).
# Like-named read-outs stand apart in the source and are kept apart here. Positions of bridges follow the written chain, without caps; N, C: chain ends. Residues, ends and D or L forms follow the SMILES beside them.
# Columns and labels:
# [1] = tested on: E. coli MG1655 wild type and cyclotides-resistant mutants; test: MIC against cyclotide-resistant strains in buffer conditions; format: cell-based, Escherichia coli; set-up: unit not given here
# Description: (§1) The LL-37 resistant mutants (DA22427 and DA23307) used in this study were derived from Salmonella enterica serovar Typhimurium DA6192, wild-type and cyclotides-resistant mutants (DA54114 and DA57107) were derived from E. coli MG1655 (wild type) and were kindly provided by Department of Medical Biochemistry and Microbiology, Uppsala University.
# (§2) MIC measurements were performed in 20 mM sodium phosphate buffer (PBS), supplemented with 0.1% TSB in 96-well plates (round bottom, Nunc A/S, Roskilde, Denmark) in a total volume of 100 µL. The overnight cultures were diluted 5 × 10^5 CFU/mL in the same medium and 90 µL was transferred into the plates containing 10 µL of 2-fold diluted peptides. […] At least two independent experiments were performed with two technical replicates. In cyclotides, resistant mutant average MIC was reported.
# [2] = tested on: Bacillus subtilis CCUG 163BT; format: cell-based; details: CCUG 163, 24 h
# Source text: (§3) The three bacterial strains—Escherichia coli ATCC 25922, Pseudomonas aeruginosa ATCC 27853, and Staphylococcus aureus ATCC 29213—as well as the fungal strain Candida albicans ATCC 90028 were provided by the Department of Clinical Bacteriology, Lund University Hospital. Bacillus subtilis CCUG 163B^T and Bacillus cereus CCUG 7414^T were obtained from the Department of Molecular Sciences, Swedish University of Agricultural Sciences.
# (§4) The standard broth microdilution assay was utilized to assess the MIC of designed peptides according to the guidelines of the Clinical and Laboratory Standards Institute (CLSI). Briefly, bacteria were grown in unbuffered Mueller–Hinton Broth (MHB, VWR International, Leuven, Belgium) as well as buffered (containing 50 mM NaHCO3) medium to the mid-logarithmic phase and were quantified by OD600. The bacterial suspension was diluted in the same medium to reach a final density of 1 × 10^6 colony-forming unit per milliliter (CFU/mL). A volume of 50 µL of the bacterial suspension was added to 96-well plates containing 50 µL of MHB in the absence (viability control) or the presence of the peptides at different concentrations (0.625–80 µM). […] MIC values were derived from 3 sets of independent experiments with different bacterial cultures.
# [3] = tested on: Bacillus cereus CCUG 7414T; format: cell-based; details: CCUG 7414, 24 h
# Source text: as §3, §4
# [4] = target: T1, aureolysin from S. aureus (Staphylococcus aureus, UniProt P81177); test: Stability in the presence of the protease aureolysin; format: in vitro ADME; details: peptide:enzyme 200:1, 37 °C, RP-HPLC-MS
# T1 construct: purchased
# Description: Peptide stability was also assayed in commercially available Gram-positive, S. aureus protease, aureolysin. […] All the samples were then incubated at 37 °C at different incubation times. The reaction was quenched by acidifying with 5 µL of 0.1% formic acid. The samples were analyzed on MS coupled to RP-HPLC.
# [5] = tested on: Pseudomonas aeruginosa ATCC 27853; format: cell-based; details: P. aeruginosa; Control: two-step microdilution assay in Tris buffer 10 mM without salts; median of triplicates
# Description: as §3
# (§5) Antimicrobial activities of the peptides were evaluated using the two-step microdilution assay, which is designed for testing AMPs without activity-inhibiting components. Briefly, bacteria were grown to the mid-logarithmic phase at 37 °C in 3% (w/v) tryptic soy broth (TSB) (Merck KGaA, Darmstadt, Germany). The microbial culture was washed twice by centrifugation and resuspension in 10 mM Tris buffer (pH 7.4 at 37 °C, adjusted by HCl). The microbial suspension was quantified by OD600, diluted, and transferred to 96-well untreated polystyrene microplates prepared with 2-fold serial dilutions of the peptides using 50,000 bacteria per well (all dilutions in Tris buffer). These were incubated for 5 h at 37 °C, after which 5 µL of 20% (w/v) TSB was added to each well and the microplates were re-incubated for an additional 6–12 h (depending on the growth rate of each organism). All MICs presented are the medians from triplicate experiments performed independently.
# (§6) A two-step assay was supplemented with a physiological concentration of salts and diluted human serum and the MIC of the peptides was evaluated as in 4.6.
# [6] = tested on: Candida albicans ATCC 90028; format: cell-based; details: C. albicans; Control: two-step microdilution assay in Tris buffer 10 mM without salts; median of triplicates
# Description: as §3, §5, §6
# [7] = tested on: Staphylococcus aureus ATCC 29213; format: cell-based; details: S. aureus; Control: two-step microdilution assay in Tris buffer 10 mM without salts; median of triplicates
# Description: as §3, §5, §6
# [8] = tested on: Salmonella enterica serovar Typhimurium DA6192 wild type and LL-37-resistant mutants (waaY, phoP); test: MIC against LL-37-resistant strains in buffer conditions; format: cell-based; set-up: unit not given here; details: 20 mM sodium phosphate buffer with 0.1% TSB, 16 to 20 h, 37 °C
# Description: as §1, §2
# [9] = Liposome leakage assay (carboxyfluorescein efflux); details: E. coli lipid liposomes versus POPC/cholesterol liposomes, 45 min, 37 °C
# Description: The liposome leakage assay was performed as described previously. In brief, the following lipids/lipid mixture was used: Escherichia coli polar lipid extract or 1-palmitoyl-2-oleoyl-sn-glycerol-3-phosphocoline1-palmitoyl-2-oleoyl-sn-glycerol (POPC, both from Avanti Polar Lipids, Alabaster, US-AL) and cholesterol (Sigma Aldrich). The lipid bilayers were formed on round-bottom flask walls by dissolving lipids in chloroform was evaporated under a flow of N2 and the lipid bilayer was placed in a vacuum overnight. Lipid bilayers were re-suspended in an aqueous solution of 100 mM 5(6)-carboxyfluorescein in 10 mM Tris buffer. […] Membrane permeability was measured by monitoring carboxyfluorescein efflux from the liposomes to the external low-concentration environment, resulting in loss of self-quenching and an increased fluorescence signal with excitation and emission wavelengths of 492 and 517 nm, respectively. […] The effect on liposome permeability for each peptide concentration was monitored for 45 min, at which point leakage had largely subsided. […] The EC50 values are (when applicable) calculated using sigmoidal dose–response curves, with the leakage percentage (0–100 constraints) as a function of the peptide concentration (log10), using GraphPad Prism.
# [10] = tested on: Bacillus subtilis CCUG 163BT; format: cell-based; details: CCUG 163, 5 h
# Description: as §3, §5
# [11] = tested on: Escherichia coli ATCC 25922; format: cell-based; details: ATCC 25922, 24 h
# Source text: as §3, §4
# [12] = tested on: Pseudomonas aeruginosa ATCC 27853; format: cell-based; details: ATCC 27853, 24 h
# Source text: as §3, §4
# [13] = tested on: Staphylococcus aureus ATCC 29213; format: cell-based; details: ATCC 29213, 24 h
# Source text: as §3, §4
# [14] = S. typhimurium phoP LL-37-resistant mutant
# [15] = S. typhimurium waaY LL-37-resistant mutant
# T1 sequence (P81177 209-509): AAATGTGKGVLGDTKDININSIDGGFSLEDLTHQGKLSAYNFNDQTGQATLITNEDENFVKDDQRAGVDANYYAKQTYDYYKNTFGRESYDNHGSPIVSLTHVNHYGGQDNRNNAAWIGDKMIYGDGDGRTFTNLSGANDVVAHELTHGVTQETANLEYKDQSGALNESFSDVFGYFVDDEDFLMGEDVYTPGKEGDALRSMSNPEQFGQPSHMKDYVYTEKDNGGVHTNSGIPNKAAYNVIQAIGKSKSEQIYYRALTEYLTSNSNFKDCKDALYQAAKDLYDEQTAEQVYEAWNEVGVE
smiles,measurement,setting,value
CC[C@H](C)[C@@H]1NC(=O)[C@H](CCCNC(=N)N)NC(=O)[C@@H]2CSSC[C@H](NC(=O)[C@H](CCCCN)NC(=O)[C@H]([C@@H](C)CC)NC(=O)[C@H](CCCNC(=N)N)NC(=O)[C@H](CCCCN)NC(=O)[C@H](C(C)C)NC(=O)[C@H]([C@@H](C)CC)NC(=O)[C@H](CCCNC(=N)N)NC(=O)[C@H](CCCCN)NC(=O)CNC(=O)CNC(=O)[C@@H]3CCCN3C(=O)CNC(=O)[C@H](CCCNC(=N)N)NC(=O)[C@H](CC(C)C)NC(=O)[C@H](Cc3ccccc3)NC(=O)[C@H](C)NC(=O)[C@H](CCCCN)NC1=O)C(=O)N[C@@H](Cc1ccccc1)C(=O)N[C@@H](CC(C)C)C(=O)N[C@@H](CCCNC(=N)N)C(=O)NCC(=O)N1CCC[C@H]1C(=O)NCC(=O)NCC(=O)N[C@@H](CCCCN)C(=O)N[C@@H](CCCNC(=N)N)C(=O)N[C@@H]([C@@H](C)CC)C(=O)N[C@@H](C(C)C)C(=O)N2 [cd4-CCPP] (cyclo(CFLRGPGGKRIVCRIKAFLRGPGGKRIVKRIK); disulfide 1-13),MIC,"[1]; E. coli DA54114 cyclotide-resistant mutant, sodium phosphate buffer with 0.1% TSB, average MIC",0.25
same,MIC,"[1]; E. coli DA57107 cyclotide-resistant mutant, sodium phosphate buffer with 0.1% TSB, average MIC",0.25
same,MIC,"[1]; E. coli WT (MG1655), 20 mM sodium phosphate buffer with 0.1% TSB, 16 to 20 h, 37 °C",0.37
same,MIC,[2],> 40 µM
same,MIC,[3],> 40 µM
same,time for which the peptide was stable in aureolysin (stable for up to),[4],≥ 8 h
same,MIC,[5],0.625 µM
same,MIC,[6],0.625 µM
same,MIC,[7],0.625 µM
same,MIC,[8]; S. typhimurium WT (DA6192),2.5
same,MIC,[8]; [14],1.25
same,MIC,[8]; [15],1.25
same,bacterial target selectivity relative to LL-37 (factor),[9],6 fold
CC[C@H](C)[C@@H]1NC(=O)[C@H](CCCNC(=N)N)NC(=O)[C@@H]2CSSC[C@H](NC(=O)[C@H](CCCCN)NC(=O)[C@H]([C@@H](C)CC)NC(=O)[C@H](CCCNC(=N)N)NC(=O)[C@H](CCCCN)NC(=O)[C@H](C(C)C)NC(=O)[C@H]([C@@H](C)CC)NC(=O)[C@H](CCCNC(=N)N)NC(=O)[C@H](CCCCN)NC(=O)CNC(=O)CNC(=O)[C@H](C)NC(=O)CNC(=O)[C@H](CCCNC(=N)N)NC(=O)[C@H](CC(C)C)NC(=O)[C@H](Cc3ccccc3)NC(=O)[C@H](C)NC(=O)[C@H](CCCCN)NC1=O)C(=O)N[C@@H](Cc1ccccc1)C(=O)N[C@@H](CC(C)C)C(=O)N[C@@H](CCCNC(=N)N)C(=O)NCC(=O)N[C@@H](C)C(=O)NCC(=O)NCC(=O)N[C@@H](CCCCN)C(=O)N[C@@H](CCCNC(=N)N)C(=O)N[C@@H]([C@@H](C)CC)C(=O)N[C@@H](C(C)C)C(=O)N2 [cd4-CC] (cyclo(CFLRGAGGKRIVCRIKAFLRGAGGKRIVKRIK); disulfide 1-13),MIC,[10],0.625 µM
same,MIC,[11],5 µM
same,MIC,[12],5 µM
same,MIC,[2],> 40 µM
same,MIC,[3],> 40 µM
same,MIC,[13],>40 µM
same,MIC,[8]; S. typhimurium WT (DA6192),1.25
same,MIC,[8]; [14],1.25
same,MIC,[8]; [15],2.5
